Measurements reported in ChEMBL document CHEMBL3885881, “DrugMatrix”.

Species on record: Rattus norvegicus
Test: DrugMatrix - Regimen: Daily Repeat
Assay type: toxicity, organism-based, Sprague-Dawley
Set-up: regimen Daily Repeat, gender Male, age 6-8 weeks
Conditions: in vivo, po, route oral GAVAGE, vehicle .5 % CMC; for BASOPHIL / EOSINOPHIL / ERYTHROCYTE COUNT / HEMATOCRIT / HEMOGLOBIN / LEUKOCYTE COUNT / LYMPHOCYTE / MEAN CORPUSCULAR HEMOGLOBIN / MEAN CORPUSCULAR HEMOGLOBIN CONCENTRATION / MEAN CORPUSCULAR VOLUME / MONOCYTE / NEUTROPHIL / PLATELET COUNT: tissue Blood; for ALANINE AMINOTRANSFERASE / ALBUMIN / ALKALINE PHOSPHATASE / ASPARTATE AMINOTRANSFERASE / BLOOD UREA NITROGEN / CHLORIDE / CHOLESTEROL / CREATINE PHOSPHOKINASE / CREATININE / GLUCOSE / PHOSPHORUS / POTASSIUM / SODIUM / TOTAL BILIRUBIN / TOTAL PROTEIN: tissue Plasma
[1] = 0 mg/kg, 72 h, dose level Control, time 3 day
[2] = 0 mg/kg, 120 h, dose level Control, time 5 day
[3] = 50 mg/kg, 72 h, dose level Low, time 3 day
[4] = 50 mg/kg, 120 h, dose level Low, time 5 day
[5] = 1000 mg/kg, 72 h, dose level High, time 3 day
[6] = 1000 mg/kg, 120 h, dose level High, time 5 day

CC(C)NCC(O)COc1ccc(CC(N)=O)cc1 (stereo not drawn) [ATENOLOL]
BASOPHIL [1]: 0% | EOSINOPHIL [1]: 0.33% | ERYTHROCYTE COUNT [1]: 6.2 x10E6/uL | HEMATOCRIT [1]: 38.08% | HEMOGLOBIN [1]: 14.92 G/DL | LEUKOCYTE COUNT [1]: 11.13 x10E3/uL | LYMPHOCYTE [1]: 76% | MEAN CORPUSCULAR HEMOGLOBIN [1]: 24.1 pg | MEAN CORPUSCULAR HEMOGLOBIN CONCENTRATION [1]: 39.17 G/DL | MEAN CORPUSCULAR VOLUME [1]: 61.48 fL | MONOCYTE [1]: 3.83% | NEUTROPHIL [1]: 19.83% | PLATELET COUNT [1]: 1327.5 x10E3/uL | ALANINE AMINOTRANSFERASE [1]: 40.17 u/L | ALBUMIN [1]: 4.07 G/DL | ALKALINE PHOSPHATASE [1]: 372 u/L | ASPARTATE AMINOTRANSFERASE [1]: 67.17 u/L | BLOOD UREA NITROGEN [1]: 18.83 mg/dL | CHLORIDE [1]: 105.17 MEQ/L | CHOLESTEROL [1]: 78.17 mg/dL | CREATINE PHOSPHOKINASE [1]: 149.17 u/L | CREATININE [1]: 0.57 mg/dL | GLUCOSE [1]: 185.17 mg/dL | PHOSPHORUS [1]: 11.43 mg/dL | POTASSIUM [1]: 6.78 MEQ/L | SODIUM [1]: 152.83 MEQ/L | TOTAL BILIRUBIN [1]: 0.4 mg/dL | TOTAL PROTEIN [1]: 6.87 G/DL | BASOPHIL [2]: 0% | EOSINOPHIL [2]: 0% | ERYTHROCYTE COUNT [2]: 6.05 x10E6/uL | HEMATOCRIT [2]: 36.55% | HEMOGLOBIN [2]: 14.7 G/DL | LEUKOCYTE COUNT [2]: 11.8 x10E3/uL | LYMPHOCYTE [2]: 86.83% | MEAN CORPUSCULAR HEMOGLOBIN [2]: 24.37 pg | MEAN CORPUSCULAR HEMOGLOBIN CONCENTRATION [2]: 40.32 G/DL | MEAN CORPUSCULAR VOLUME [2]: 60.47 fL | MONOCYTE [2]: 0.83% | NEUTROPHIL [2]: 12.33% | PLATELET COUNT [2]: 1177 x10E3/uL | ALANINE AMINOTRANSFERASE [2]: 41.83 u/L | ALBUMIN [2]: 3.75 G/DL | ALKALINE PHOSPHATASE [2]: 377.5 u/L | ASPARTATE AMINOTRANSFERASE [2]: 60.83 u/L | BLOOD UREA NITROGEN [2]: 16 mg/dL | CHLORIDE [2]: 105.67 MEQ/L | CHOLESTEROL [2]: 67.83 mg/dL | CREATINE PHOSPHOKINASE [2]: 120.33 u/L | CREATININE [2]: 0.6 mg/dL | GLUCOSE [2]: 167.67 mg/dL | PHOSPHORUS [2]: 10.03 mg/dL | POTASSIUM [2]: 6.68 MEQ/L | SODIUM [2]: 150.5 MEQ/L | TOTAL BILIRUBIN [2]: 0.57 mg/dL | TOTAL PROTEIN [2]: 6.25 G/DL | BASOPHIL [3]: 0% | EOSINOPHIL [3]: 0% | ERYTHROCYTE COUNT [3]: 5.54 x10E6/uL | HEMATOCRIT [3]: 35.3% | HEMOGLOBIN [3]: 13.9 G/DL | LEUKOCYTE COUNT [3]: 9.75 x10E3/uL | LYMPHOCYTE [3]: 86% | MEAN CORPUSCULAR HEMOGLOBIN [3]: 25.1 pg | MEAN CORPUSCULAR HEMOGLOBIN CONCENTRATION [3]: 39.35 G/DL | MEAN CORPUSCULAR VOLUME [3]: 63.75 fL | MONOCYTE [3]: 1% | NEUTROPHIL [3]: 13% | PLATELET COUNT [3]: 1258 x10E3/uL | ALANINE AMINOTRANSFERASE [3]: 34.5 u/L | ALBUMIN [3]: 3.75 G/DL | ALKALINE PHOSPHATASE [3]: 332 u/L | ASPARTATE AMINOTRANSFERASE [3]: 57 u/L | BLOOD UREA NITROGEN [3]: 18 mg/dL | CHLORIDE [3]: 106 MEQ/L | CHOLESTEROL [3]: 83 mg/dL | CREATINE PHOSPHOKINASE [3]: 110 u/L | CREATININE [3]: 0.55 mg/dL | GLUCOSE [3]: 164.5 mg/dL | PHOSPHORUS [3]: 11.45 mg/dL | POTASSIUM [3]: 6.45 MEQ/L | SODIUM [3]: 152 MEQ/L | TOTAL BILIRUBIN [3]: 0.3 mg/dL | TOTAL PROTEIN [3]: 6.2 G/DL | BASOPHIL [4]: 0% | EOSINOPHIL [4]: 0% | ERYTHROCYTE COUNT [4]: 5.99 x10E6/uL | HEMATOCRIT [4]: 36.17% | HEMOGLOBIN [4]: 14.4 G/DL | LEUKOCYTE COUNT [4]: 11.97 x10E3/uL | LYMPHOCYTE [4]: 88% | MEAN CORPUSCULAR HEMOGLOBIN [4]: 24.03 pg | MEAN CORPUSCULAR HEMOGLOBIN CONCENTRATION [4]: 39.8 G/DL | MEAN CORPUSCULAR VOLUME [4]: 60.4 fL | MONOCYTE [4]: 1.67% | NEUTROPHIL [4]: 10.33% | PLATELET COUNT [4]: 1118 x10E3/uL | ALANINE AMINOTRANSFERASE [4]: 39.67 u/L | ALBUMIN [4]: 3.6 G/DL | ALKALINE PHOSPHATASE [4]: 354.33 u/L | ASPARTATE AMINOTRANSFERASE [4]: 60.33 u/L | BLOOD UREA NITROGEN [4]: 14 mg/dL | CHLORIDE [4]: 104.67 MEQ/L | CHOLESTEROL [4]: 72 mg/dL | CREATINE PHOSPHOKINASE [4]: 115 u/L | CREATININE [4]: 0.53 mg/dL | GLUCOSE [4]: 172.33 mg/dL | PHOSPHORUS [4]: 10.87 mg/dL | POTASSIUM [4]: 6.93 MEQ/L | SODIUM [4]: 150.33 MEQ/L | TOTAL BILIRUBIN [4]: 0.3 mg/dL | TOTAL PROTEIN [4]: 5.93 G/DL | BASOPHIL [5]: 0% | EOSINOPHIL [5]: 0.67% | ERYTHROCYTE COUNT [5]: 5.98 x10E6/uL | HEMATOCRIT [5]: 36.83% | HEMOGLOBIN [5]: 14.37 G/DL | LEUKOCYTE COUNT [5]: 10.2 x10E3/uL | LYMPHOCYTE [5]: 87.33% | MEAN CORPUSCULAR HEMOGLOBIN [5]: 24.07 pg | MEAN CORPUSCULAR HEMOGLOBIN CONCENTRATION [5]: 39.03 G/DL | MEAN CORPUSCULAR VOLUME [5]: 61.67 fL | MONOCYTE [5]: 0.67% | NEUTROPHIL [5]: 11.33% | PLATELET COUNT [5]: 1408.33 x10E3/uL | ALANINE AMINOTRANSFERASE [5]: 45.67 u/L | ALBUMIN [5]: 3.63 G/DL | ALKALINE PHOSPHATASE [5]: 339 u/L | ASPARTATE AMINOTRANSFERASE [5]: 60.67 u/L | BLOOD UREA NITROGEN [5]: 14 mg/dL | CHLORIDE [5]: 107 MEQ/L | CHOLESTEROL [5]: 70 mg/dL | CREATINE PHOSPHOKINASE [5]: 137.33 u/L | CREATININE [5]: 0.5 mg/dL | GLUCOSE [5]: 170.33 mg/dL | PHOSPHORUS [5]: 10.57 mg/dL | POTASSIUM [5]: 6.17 MEQ/L | SODIUM [5]: 151.33 MEQ/L | TOTAL BILIRUBIN [5]: 0.3 mg/dL | TOTAL PROTEIN [5]: 6 G/DL | BASOPHIL [6]: 0% | EOSINOPHIL [6]: 0% | ERYTHROCYTE COUNT [6]: 7.06 x10E6/uL | HEMATOCRIT [6]: 43.27% | HEMOGLOBIN [6]: 16.87 G/DL | LEUKOCYTE COUNT [6]: 15.07 x10E3/uL | LYMPHOCYTE [6]: 82% | MEAN CORPUSCULAR HEMOGLOBIN [6]: 24 pg | MEAN CORPUSCULAR HEMOGLOBIN CONCENTRATION [6]: 39.07 G/DL | MEAN CORPUSCULAR VOLUME [6]: 61.43 fL | MONOCYTE [6]: 2.67% | NEUTROPHIL [6]: 15.33% | PLATELET COUNT [6]: 1202 x10E3/uL | ALANINE AMINOTRANSFERASE [6]: 39.67 u/L | ALBUMIN [6]: 3.77 G/DL | ALKALINE PHOSPHATASE [6]: 265.33 u/L | ASPARTATE AMINOTRANSFERASE [6]: 77 u/L | BLOOD UREA NITROGEN [6]: 20 mg/dL | CHLORIDE [6]: 111.33 MEQ/L | CHOLESTEROL [6]: 76.33 mg/dL | CREATINE PHOSPHOKINASE [6]: 139.33 u/L | CREATININE [6]: 0.6 mg/dL | GLUCOSE [6]: 166 mg/dL | PHOSPHORUS [6]: 11.47 mg/dL | POTASSIUM [6]: 7 MEQ/L | SODIUM [6]: 158.33 MEQ/L | TOTAL BILIRUBIN [6]: 0.27 mg/dL | TOTAL PROTEIN [6]: 6.3 G/DL
